# Laboratory results as given in patent US12291494B2, “Methods of treating fibrosis” (Nogra Pharma Limited, priority 2012, dated 2025).
# Assays:
# [1] = test system: Male C57bl6 mice; assay: CCl4-induced liver fibrosis: histology (Metavir score); assay type: in vivo
# Procedure: Liver fibrosis was induced in Male C57bl6 mice (Charles River, l'Arbresle, France) by injection of carbon tetrachloride (CCl4). The C57bl6 mice weighed 22-25 g and were maintained in laboratory conditions for 1 week before experiment. Animals were housed 5 per cage with food and water available ad libitum.
# The effectiveness of compound 34 (specific ligand of PPARg) as compared to JWH-133 (anti-fibrogenic agent) was evaluated. Compound 34 was administered orally in combination with CCl4 injections for ca. 5 weeks. Compound 34 was dosed daily at 200 uL of a 30 mM solution. JWH-133 was administered daily via intraperitoneal injections at 3 mg/kg (dose volume=100 uL). The model of liver fibrosis is induced by chronic exposure to increased dosages of CCl4 for 5 weeks. The first week, mice received an intraperitoneal injection of CCl4, resuspended in olive oil, at the dosage of 80 μl/kg of mice body weight twice a week. At week 2, 3 injections of CCl4 at the dosage of 160 μl/kg were performed every two days. At week 3, 3 injections of CCl4 at the dosage of 240 μl/kg were performed every two days. At week 4, 3 injections of CCl4 at the dosage of 320 μl/kg were performed every two days. Mice were euthanized, at week 5, 3 days after the last CCl4 administration.
# The formalin-fixed liver tissue was processed and 5 μm thick paraffin sections were stained with hematoxylin and eosin (H&E) and Picrosirius red staining (specific coloration for collagen in tissue sections) to evaluate the degree of fibrosis in the liver. Each section was analyzed blindly by 3 different experimenters for the quantification of the degree of fibrosis for each lobe of the liver (5) using the Metavir score (see FIG. 2A for Metavir Score chart). The photographs seen in FIG. 2B were obtained with a 20× objective.
# [2] = test system: Collagen-1; assay: Liver gene expression by quantitative Real Time PCR: collagen-1; assay type: in vivo, mice
# Procedure: (§1) The effect of administration of compound 34 (GED) and the specific CB2 agonist (JWH-133) was evaluated on the level of gene expression of cytokines (IL-1β, TNF-α) and genes involved in the mechanism of fibrosis by quantitative Real Time PCR.
# (§2) Total RNA was isolated from livers using Rneasy kit (Macherey Nagel, Hoerdt, France) according to the manufacturer's instructions. RNA quantification was performed using spectrophotometry. After treatment at 37° C. for 30 min with 20-50 units of RNase-free DNase I (Roche Diagnostics Corporation, Indianapolis, IN, USA), oligo-dT primers (Roche Diagnostics Corporation, Indianapolis, USA) were used to synthesize single-stranded cDNA. mRNAs were quantified using SYBR green Master Mix (Applera, Courtaboeuf, France) with murine specific oligonucleotides (see Table 2) in a GeneAmp Abiprism 7000 (Applera, Courtaboeuf, France). In each assay, calibrated and no-template controls were included. Each sample was run in triplicate. SYBR green dye intensity was analyzed using the Abiprism 7000 SDS software (Applera, Courtaboeuf, France). All results were normalized to the unaffected housekeeping gene β-actin.
# [3] = test system: α-SMA; assay: Liver gene expression by quantitative Real Time PCR: α-SMA; assay type: in vivo, mice; conditions: liver mRNA, normalized to β-actin; CCl4 group 65.51 ± 22.24
# Procedure: as §1, §2
smiles,measurement,setting,value
CCCC(C)(C)c1ccc2c(c1)OC(C)(C)[C@@H]1CC=C(C)C[C@@H]21 [JWH-133],decrease of the fibrotic score (adapted Metavir score) compared to untreated animals,[1]; FIG. 3B,14.2%
same,mean Metavir score (FIG. 3A),"[1]; compound 34 30 mM 200 uL oral daily, JWH-133 3 mg/kg i.p. daily, CCl4 vehicle group 2.5±0.5",2±0
same,degree of fibrosis (Metavir),[1]; result in words,decrease in the degree of fibrosis from severe to moderate fibrosis
same,decrease of hepatic fibrotic lesions,[1]; summary statement,14%
same,liver concentration of collagen-1 mRNA,"[2]; CCl4 mice, result in words",normalizes
same,Collagen-1,"[2]; liver mRNA, normalized to β-actin, CCl4 group 138.12 ± 34.68",87.59 ± 16.97
same,α-SMA,[3],30.07 ± 4.7
